Data as given in patent US20260240832A1, “USE OF NITROXOLINE COMPOUND IN ENHANCING EFFECT OF ANTIBACTERIAL AGENT” (Jiangsu Yahong Meditech Co., Ltd., priority 2022, published 2026).
Read-outs that look alike come from different tables or passages of the source.

Test system: carbapenem-resistant Acinetobacter baumannii
Assay: Chessboard microbroth dilution MIC/FIC, compound 1 in combination with polymyxin
Type: cell-based
Conditions: for MIC: Acinetobacter baumannii, read-out: Compound 1 MIC alone; for Compound 1 MIC in combination: with polymyxin
Excerpt: This experiment is designed to determine the minimum inhibitory concentration (MIC) of compound 1 in combination with polymyxin against carbapenem-resistant Acinetobacter baumannii and to calculate the fractional inhibitory concentration (FIC) index.
Test bacteria: 10 strains of carbapenem-resistant Acinetobacter baumannii are clinically isolated strains, and are provided by Shanghai Junji Medical Laboratory Co., Ltd.
According to the recommendation of the Clinical and Laboratory Standards Institute (CLSI), the microbroth dilution method designed by the chessboard method was used to determine the minimum inhibitory concentration (MIC) of compound 1 in combination with polymyxin against the above strains, and the fractional inhibitory concentration (FIC) index was calculated.
Compound 1 was dissolved in dimethyl sulfoxide to obtain a stock solution I with a concentration of 51200 mg/L. The stock solution I was subjected to 1:1 gradient dilution with dimethyl sulfoxide to obtain a dilution solution with a concentration range of 51200 to 25 mg/L. The corresponding concentrations were added to sterile water for 100-fold dilution to obtain working solution I with a concentration range of 512 to 0.25 mg/L.
Polymyxin was dissolved in sterile water to obtain a stock solution with a concentration of 5120 mg/L. The polymyxin stock solution was subjected to 1:1 gradient dilution with sterile water to obtain a working solution II with a concentration range of 512 to 0.25 mg/L.
According to the method in Example 1, a drug sensitive plate was prepared with working solution I and working solution II, and the specific process will not be repeated here.
(2) The culture medium of the bacterial solution: Cation-Adjusted Mueller-Hinton Broth (CAMHB), a product of BBL, USA, batch number 9015952.
(3) Formulation method of bacterial solution: According to the direct colony suspension method, the test bacteria cultured overnight were prepared into a 0.5 McFarland turbidity tube using physiological saline. Then, the resulting solution was dilute 100 times with the above culture medium. 100 μL of the resulting bacterial solution was mixed well with the solution (100 μL) in each well of the drug sensitivity plate, and the final inoculation amount was 10^5 CFU/mL.
(4) Culture conditions: Culturing at 35±2° C. for 20 hours in air.
(1) The experimental results were determined according to the standard of CLSI 2020 M100 30th edition.
wherein: FIC≤0.5 indicates synergistic effect; 0.5<FIC≤1.0 indicates additive effect; 1<FIC≤2.0 indicates irrelevant effect; and FIC>2 indicates antagonistic effect.

[1] = strain 18-J11-001, compound 1 + polymyxin
[2] = strain 18-J11-002, compound 1 + polymyxin
[3] = strain 18-J11-034, compound 1 + polymyxin
[4] = strain 18-J11-097, compound 1 + polymyxin
[5] = strain 18-J15-030, compound 1 + polymyxin
[6] = strain 18-J21-095, compound 1 + polymyxin
[7] = strain 18-J24-015, compound 1 + polymyxin
[8] = strain 18-J24-033, compound 1 + polymyxin
[9] = strain 18-J40-021, compound 1 + polymyxin
[10] = strain 18-J51-052, compound 1 + polymyxin

MIC (strain 18-J11-001): 8 µg/mL | MIC (strain 18-J11-002): 4 µg/mL | MIC (strain 18-J11-034): 4 µg/mL | MIC (strain 18-J11-097): 4 µg/mL | MIC (strain 18-J15-030): 16 µg/mL | MIC (strain 18-J21-095): 8 µg/mL | MIC (strain 18-J24-015): 8 µg/mL | MIC (strain 18-J24-033): 4 µg/mL | MIC (strain 18-J40-021): 8 µg/mL | MIC (strain 18-J51-052): 4 µg/mL | change of the MIC of polymyxin by the combination (compound 1 + polymyxin): significantly reduce | Compound 1 MIC in combination (strain 18-J11-001): 0.5 µg/mL | Compound 1 MIC in combination (strain 18-J11-002): 2 µg/mL | Compound 1 MIC in combination (strain 18-J11-034): 1 µg/mL | Compound 1 MIC in combination (strain 18-J11-097): 0.5 µg/mL | Compound 1 MIC in combination (strain 18-J15-030): 1 µg/mL | Compound 1 MIC in combination (strain 18-J21-095): 4 µg/mL | Compound 1 MIC in combination (strain 18-J24-015): 1 µg/mL | Compound 1 MIC in combination (strain 18-J24-033): 1 µg/mL | Compound 1 MIC in combination (strain 18-J40-021): 1 µg/mL | Compound 1 MIC in combination (strain 18-J51-052): 2 µg/mL
SMILES: O=[N+]([O-])c1c(Br)c(Cl)c2cccnc2c1O [Compound 1, 6-bromo-5-chloro-7-nitroquinolin-8-ol]
effect of the combination (summary of Table 2) (compound 1 + polymyxin): synergistic effect (FIC≤0.5 indicates synergistic effect) | FIC index [1]: 0.303 | Results [1]: Synergistic | FIC index [2]: 0.740 | Results [2]: Additive | FIC index [3]: 0.500 | Results [3]: Synergistic | FIC index [4]: 0.365 | Results [4]: Synergistic | FIC index [5]: 0.313 | Results [5]: Synergistic | FIC index [6]: 0.740 | Results [6]: Additive | FIC index [7]: 0.375 | Results [7]: Synergistic | FIC index [8]: 0.500 | Results [8]: Synergistic | FIC index [9]: 0.250 | Results [9]: Synergistic | FIC index [10]: 0.750 | Results [10]: Additive
